Measured values as given in patent US4518611A, “2-Furylbutyrolactone modulation of the immune system in mammals” (priority 1983, dated 1985).
Where “and” joins values, the source holds several entries; their conditions need not be identical. Identical values can stand only once. Entries after “also recorded” stand apart in the source; their conditions may differ. Like-named read-outs stand apart in the source and are kept apart here.

Legend:
human lymphocytes = test: In vitro lymphocyte stimulation assay, human lymphocytes; type: cell-based
Description: The purpose of this assay is to challenge lymphocytes in microcultures with one or more polyclonal mitogens at concentrations that will induce mitogenesis within 72 hours of stimulation.
In the mouse model, spleens are removed from different strains of mice and the spleen cells are teased free and suspended in RPMI-1640 tissue culture medium at a concentration of usually […]. These cells are dispensed at a concentration of 5.0×10^5 cells per microculture well in a 96 well flat bottom 96 well tissue culture plate. All testing of the compounds of this invention or mitogens are done in replicates of 10. The cells are then treated with PHA, Con-A, specific antigens, or buffer only. If in vitro testing is done, varying concentrations of the compounds of this invention or buffer only are added to the cells as well. After treatment with the mitogens and/or compounds of this invention, the cells are incubated for 72 hours. The response of these cells to mitogens and/or the compounds of this invention is assessed using ^14 C-thymidine labeling on the fourth day at a concentration of 0.01 μCi/well. The labeled cells are harvested using a lymphocyte harvestor and placed onto fibrous paper discs. A scintillation cocktail is added to vials containing the discs and the results are obtained using a LKB-liquid scintillation counter (Model 1216/Rackbeta II). The data is expressed as a ratio of the cpm of the mitogen stimulated group to the control (nonmitogen) treated group=lymphocyte stimulation index (LSI).
The lymphocyte stimulation assay may be performed directly on spleen cells obtained from various strains of mice not treated with the compounds of this invention or on lymphocytes obtained from human […]. […] Alternatively, the mice may be treated in vivo with the compounds of this invention by intraperitoneal multi-dose schedules, followed by sacrifice and harvesting spleen lymphocytes. These cells are then tested for their response to polyclonal mitogens or specific antigens used to immunize the mice. In this system however, no additional compound is added to the in vitro lymphocyte stimulation assay system.
Lymphocytes isolated from 5 human volunteers are treated in vitro with PHA and Con-A and either 0.1, 1, 10, 50, or 100 μg/well of Cpd. 1, 0.1, 1, 10, 50, or 100 μg/well of AA, or buffer.

L5178Y tumor cells = settings: for No. Survivors: 100 mg/kg
Description: Ten days later the resultant tumor nodule, about 1 cm in size, is surgically excised. If the excision was successful, no subcutaneous tumors develop at the site of implantation. […] These mice are considered to be in the tumor dormant state.
The effect of Cpd. 1 on the establishment of the L5178Y tumor dormant state is studied by treating forty DBA/2 mice with Cpd. 1 after the mice have undergone the TDS inducing procedure. […] 1 at 100 mg/kg and the remaining twenty mice receive buffer only. A partial peritoneal lavage is performed twenty-five days after the last dose of Cpd. 1 and the peritoneal exudate fluid is plated out for determination of tumor cell numbers (tumor cell quantitative assay). Survival time is recorded out to 90 days after challenge with the viable L5178Y tumor cells. The percent mortality is calculated for each group.
The effect of Cpd. 1 on the establishment of the L5178Y tumor dormant state was studied by treating forty DBA/2 mice with Cpd. 1 after the mice had undergone the TDS inducing procedure. Two days after the mice were challenged with i.p. administration of 50,000 viable L5178Y tumor cells, twenty of these mice received seven consecutive days of i.p. treatment with Cpd. 1 at 100 mg/kg and the remaining twenty mice received buffer only. A partial peritoneal lavage was performed twenty-five days after the last dose of Cpd. 1 and the peritoneal exudate fluid was plated out for determination of tumor cell numbers (tumor cell quantitative assay). Survival time was recorded out to 114 days after challenge with the viable L5178Y tumor cells. The percent mortality was calculated for each group.

L-1210 leukemia cells = test: Treatment of L-1210 leukemia in BDF1 mice (T/C ratios); type: in vivo, mouse
Source text: Mice of the BDF1 strain are given in i.p. inoculation of 10^6 L-1210 leukemia cells on day 0. Twenty-four hours later, groups of 7 mice each are started on a nine day treatment regimen of various doses of the compounds of this invention. The experiment is continued according to the guidelines provided under the National Cancer Institute protocol for screening new anti-cancer agents and T/C ratios (median or mean survival time of treated groups over median or mean survival time of controls) are calculated. A T/C value ≥1.25 (or 125%) is considered significant anticancer activity.
(§1) Mice of the BDF1 strain, inoculated with L-1210 leukemia cells, are treated for seven days with either 25, 50, 100, 200 or 400 mg/kg of Cpd. 1 or just buffer. The National Cancer Institute protocol for screening new anti-cancer agents is followed and T/C ratios are calculated.
as §1, with “either 100” for “either 25, 50, 100, 200 or 400”, “Cpd. 1, 20 mg/kg of 5-flourouracil (5-FU), a known anti-cancer agent,” for “Cpd. 1”

[1] = No. tumor cells >100,000, 100 mg/kg i.p., 7 days

Cc1ccc(C2(O)C(=O)OC3C(O)COC32O)o1.Cc1ccc(C2(O)C(=O)OC3C(O)COC32O)o1.O=C1CCC(=O)O1 (centres unmarked) [Cpd. 1, 2-furylbutyrolactone:succinic anhydride]
Lymphocyte Stimulation Index, Con-A (human lymphocytes; 0.1 μg/well): 38.06 | Lymphocyte Stimulation Index, PHA (human lymphocytes; 0.1 μg/well): 56.67 | Lymphocyte Stimulation Index, Con-A (human lymphocytes; 1.0 μg/well): 32.63 | Lymphocyte Stimulation Index, PHA (human lymphocytes; 1.0 μg/well): 48.60 | Lymphocyte Stimulation Index, Con-A (human lymphocytes; 10 μg/well): 23.82 | Lymphocyte Stimulation Index, PHA (human lymphocytes; 10 μg/well): 34.37 | Lymphocyte Stimulation Index, Con-A (human lymphocytes; 50 μg/well): 1.33 | Lymphocyte Stimulation Index, PHA (human lymphocytes; 50 μg/well): 0.40 | Lymphocyte Stimulation Index, Con-A (human lymphocytes; 100 μg/well): 0.44 | Lymphocyte Stimulation Index, PHA (human lymphocytes; 100 μg/well): 0.544 | effect on lymphocyte response (in words) (human lymphocytes; in vitro, PHA and Con-A): a high dose anti-proliferative effect, at doses of 100 and 50 μg/ml; also recorded: markedly increased lymphocyte response at very low doses of 1 and 0.1 μg/ml | numbers of tumor cells recovered (in words) (L5178Y tumor cells; 100 mg/kg i.p., 7 days): significant reduction in the numbers of tumor cells recovered | survival (in words) (L5178Y tumor cells; 100 mg/kg i.p., 7 days): significantly greater survival | No. Survivors (L5178Y tumor cells; 90 days post-challenge): 10 | No. Survivors (L5178Y tumor cells; 114 days post-challenge): 19 | Frequency (mice), treated group (L5178Y tumor cells; No. tumor cells 1,000 to 100,000, 100 mg/kg i.p., 7 days): 7 and 4 | % of Total, treated group (L5178Y tumor cells; [1]): 6% and 4.3% | Frequency (mice), treated group (L5178Y tumor cells; [1]): 1 | Median Survival Time (L-1210 leukemia cells; 25 mg/kg, seven days): 20 days | T/C (L-1210 leukemia cells; 25 mg/kg, seven days): 1.00 | Median Survival Time (L-1210 leukemia cells; 50 mg/kg, seven days): 21 days | T/C (L-1210 leukemia cells; 50 mg/kg, seven days): 1.05 | Median Survival Time (L-1210 leukemia cells; 100 mg/kg, seven days): 30 days | T/C (L-1210 leukemia cells; 100 mg/kg, seven days): 1.50 and 1.40 | Median Survival Time (L-1210 leukemia cells; 100 mg/kg, seven days (Table 25)): 28 | Median Survival Time (L-1210 leukemia cells; 200 mg/kg, seven days): 30 days | T/C (L-1210 leukemia cells; 200 mg/kg, seven days): 1.50 | Median Survival Time (L-1210 leukemia cells; 400 mg/kg, seven days): 25 days | T/C (L-1210 leukemia cells; 400 mg/kg, seven days): 1.25
